Results as given in US10597378B2 (priority 2017, dated 2020).

Tests used:
[1] = tested on: melanoma cell-implanted B6 mice; test: Cancer-induced pain (B16-F1 melanoma), mechanical allodynia (Von Frey test); assay type: in vivo, mouse
Protocol: To induce neuropathic pain, each B6 mouse was intraperitoneally injected with either oxaliplatin (3.0 mg/kg), or vehicle (saline) after habituation to the test environment and baseline measurements of pain sensitivity. […] To induce cancer pain, each B6 mouse was injected with either 20 μL phosphate-buffered saline or cells (6×10^5 cells/20 μL phosphate-buffered saline) in the footpad of the right hind paw under isoflurane anesthesia on post-inoculation day 0. […] […] The tests were initiated with 0.5 g force. Briefly, whenever a withdrawal response occurred, the next weaker von Frey filament was applied. On the other hand, whenever no withdrawal response occurred, the next stronger filament was applied. Mechanical allodynia was defined as changes in the amount of pressure to induce the hind paw withdrawal.
The cold allodynia was tested using acetone drop test and mechanical allodynia was measured using the Von Frey test to examine the antinociceptive effects of each drug treatment.

myc-tagged human MOR = target: T1, myc-tagged human MOR (Homo sapiens, UniProt P35372); test: cell-based
T1 construct: myc; host or cells: mouse pituitary AtT-20 cells
T1 sequence (P35372 whole entry): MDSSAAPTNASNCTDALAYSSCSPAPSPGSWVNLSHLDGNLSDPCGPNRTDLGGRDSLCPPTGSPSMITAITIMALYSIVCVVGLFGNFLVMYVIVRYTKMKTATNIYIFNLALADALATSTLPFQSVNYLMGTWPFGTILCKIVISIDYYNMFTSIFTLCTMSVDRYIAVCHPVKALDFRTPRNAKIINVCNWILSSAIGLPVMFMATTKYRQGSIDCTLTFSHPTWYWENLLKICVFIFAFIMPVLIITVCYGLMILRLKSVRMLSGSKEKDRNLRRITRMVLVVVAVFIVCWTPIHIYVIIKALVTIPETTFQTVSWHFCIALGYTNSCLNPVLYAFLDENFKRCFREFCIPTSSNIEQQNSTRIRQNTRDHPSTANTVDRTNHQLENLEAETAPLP

[2] = tested on: oxaliplatin-injected B6 mice; test: Oxaliplatin-induced neuropathic pain, mechanical allodynia (Von Frey test); assay type: in vivo, mouse; conditions: PID 3, 30 min after treatment, equi-antinociceptive doses
Protocol: To induce neuropathic pain, each B6 mouse was intraperitoneally injected with either oxaliplatin (3.0 mg/kg), or vehicle (saline) after habituation to the test environment and baseline measurements of pain sensitivity. […] To induce cancer pain, each B6 mouse was injected with either 20 μL phosphate-buffered saline or cells (6×10^5 cells/20 μL phosphate-buffered saline) in the footpad of the right hind paw under isoflurane anesthesia on post-inoculation day 0. On post-inoculation day 19, i.e., the test day, mice were placed on a mesh floor with 5×5 mm holes, covered with a cup to prevent visual stimulation, and allowed to adapt for 1 h prior to testing. […] The tests were initiated with 0.5 g force. Briefly, whenever a withdrawal response occurred, the next weaker von Frey filament was applied. On the other hand, whenever no withdrawal response occurred, the next stronger filament was applied. Mechanical allodynia was defined as changes in the amount of pressure to induce the hind paw withdrawal.
This treatment paradigm was followed to produce neuropathic pain mice.

MOR = MOR (Homo sapiens, UniProt P35372); test: cell-based; set-up: expressed in transfected cells; host or cells: CHO-K1/MOR/Ga15 cells; conditions: read-out: FLIPR Ca2+ EC50
Sequence of MOR (P35372 whole entry): as above
Protocol: In an exemplary in vitro assay for identifying MOR agonists, cells that express a MOR are treated with a test compound in a cellular calcium fluorescent assay and calcium fluorescence intensity is then measured to determine whether the MOR is activated. A test compound is identified as a MOR agonist if the MOR is activated.
EC50 herein refers to the concentration of a compound that induces a response halfway between the baseline and the maximum after a specified exposure time. AUC refers to the area under the response curve, an indication of the compound's capability of activating a MOR.
One day before the assay, CORNING® black with clear flat bottom 96-well assay plates were coated with a 0.1 mg/mL Poly-L-Lysine solution. CHO-K1/MOR/Ga15 cells were suspended in the F12 medium and plated at a density of about 8×10^4 cells/well in […] medium. Cells were incubated in a humidified atmosphere of 10% CO2 at 37° C. overnight so as to reach an 80-90% confluent cell monolayer before the assay. On the day of the assay, 150 μL medium/well was removed from plate. […] Compounds and other reagents were dissolved in the assay buffer. […] The [Ca^2+]i fluorescence was measured up to 90 s after agonist injection.

`CN1CCc2ccccc2C1CNC(=O)c1ccc(Cl)c(Cl)c1` (stereo not drawn) [Compound 67, 3,4-Dichloro-N-[(2-methyl-1,2,3,4-tetrahydro-1-isoquinolinyl)methyl]benzamide] was tested, and the “antinociceptive effect after twice daily injection” value ([1]; 30 min on PID 21 and PID 23) was “more than that of morphine”, the withdrawal threshold ([1]; PID19, 30 min after treatment, equi-antinociceptive doses) was “greater than that of morphine” and the EC50 (myc-tagged human MOR) was 59.9 nM. The “Emax of membrane potential hyperpolarization” value (myc-tagged human MOR) was “slightly higher than that of morphine”, the “antinociceptive effect in oxaliplatin-induced sensory allodynia” value [2] was “comparable to that of morphine” and the EC50 (MOR) was 10 nM.
